{
  "source": "patent US12391683B2",
  "about": "“Therapeutic compounds and methods” (Actio Biosciences, Inc., priority 2022, dated 2025)",
  "biological_target": "Human TRPV4 (Homo sapiens, UniProt Q9HBA0)",
  "sequence (Q9HBA0 whole entry)": "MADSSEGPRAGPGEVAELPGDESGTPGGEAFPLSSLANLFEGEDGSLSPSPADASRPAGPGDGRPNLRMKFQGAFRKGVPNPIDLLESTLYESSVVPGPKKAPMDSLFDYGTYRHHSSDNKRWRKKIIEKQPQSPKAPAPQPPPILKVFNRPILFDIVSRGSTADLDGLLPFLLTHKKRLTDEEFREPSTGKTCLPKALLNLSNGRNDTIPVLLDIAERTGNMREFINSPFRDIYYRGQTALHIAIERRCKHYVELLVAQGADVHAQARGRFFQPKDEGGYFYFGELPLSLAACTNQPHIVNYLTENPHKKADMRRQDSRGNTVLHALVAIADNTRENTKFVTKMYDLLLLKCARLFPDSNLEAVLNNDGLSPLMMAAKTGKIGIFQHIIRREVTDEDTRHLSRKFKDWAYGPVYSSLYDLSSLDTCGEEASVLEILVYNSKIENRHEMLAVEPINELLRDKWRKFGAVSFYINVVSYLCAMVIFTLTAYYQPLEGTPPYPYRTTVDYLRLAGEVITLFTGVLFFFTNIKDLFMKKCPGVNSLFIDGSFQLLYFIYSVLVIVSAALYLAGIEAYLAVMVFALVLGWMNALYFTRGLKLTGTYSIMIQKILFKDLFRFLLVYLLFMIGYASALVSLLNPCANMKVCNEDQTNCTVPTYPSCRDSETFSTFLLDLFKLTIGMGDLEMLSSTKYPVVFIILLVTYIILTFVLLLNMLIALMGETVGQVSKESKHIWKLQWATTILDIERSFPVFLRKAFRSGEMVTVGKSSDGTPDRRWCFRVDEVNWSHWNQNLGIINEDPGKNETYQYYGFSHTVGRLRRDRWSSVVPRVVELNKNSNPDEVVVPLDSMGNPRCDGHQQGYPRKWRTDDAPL",
  "assay": "TRPV4 calcium flux assay (FLIPR, antagonist mode)",
  "type": "cell-based",
  "parameters": "HiBiT (inferred from the expression read-out); host or cells: HEK293T",
  "details": "HEK293T cells transfected with hTRPV4; antagonist mode vs EC80 of TRPV4 agonist; average of at least 3 separate experiments; read-out: Human TRPV4 Ca2+ Assay IC50",
  "protocol": "Example 23. TRPV4 Calcium Assay Methods\nHuman embryonic kidney 293T (HEK293T/293T) cells are cultured in complete media (Dulbecco's Modified Eagle Medium (DMEM), containing 10% fetal bovine serum (FBS) and 1× penicillin-streptomycin) in a T-75 tissue culture flask. At 90% confluency, cells are detached using TrypLE™ Express cell dissociation buffer. TrypLE™ Express buffer is neutralized by adding culture media in excess. Cells are gently triturated and counted using trypan blue in a Countess 3 automated cell counter. Cells are transferred to a 50 mL conical tube and spun down at 1000 rotations per minute (RPM) for five minutes in a benchtop centrifuge. Media containing detaching enzyme is aspirated off the pellet, followed by resuspension to the desired concentration of 2×10^6 cells per mL in complete DMEM.\nTransfection preparations were scaled using a combination of 6 μg of TRPV4 wild-type or mutant plasmid DNA, 36 μL of Fugene6 transfection reagent, and 1000 μL of OptiMEM media for every 2×10^6 cells needed. The transfection mix is left to incubate for 20 minutes at room temperature. Total seeding mixture (1000 μL 2×10^6 cells, 1000 μL transfection mix previously described, and 1000 μL complete DMEM) for one transfection is combined into a 15 mL conical tube. The cells and transfection plasmid are mixed thoroughly and dispensed into a reservoir. This is plated at 25 μL per well in a black 384, black-well, clear-bottom, tissue-culture treated plate. This yields approximately 16,000 cells per well. Plasmid DNA constructs were designed by Actio Biosciences in conjunction with Genscript, and generated by Genscript, for all hTRPV4 wild-type and hTRPV4 P/LP (ClinVar) mutations (G78W, P82S, T891, P97R, R186Q, R232C, R232P, R237G, R237Q, R237 L, R269C, R269H, R269S, G270V, R271P, F273 L, K276E, E278K, G280S, Y281S, R315G, R315W, R316C, R316H, R316 L, R316S, I331F, D333G, S403T, K403T, K407E, S542P, S542Y, L543R, Y591N, R594C, R594H, R594S, G600E, Y602C, R616Q, F617 L, L618P, V6201, A716S, A716T, L735R, T740I, R775K, W785R, E797D, E797K, P799A, P799R, P799S, P799 L, G800D, K801E, P827H, F471del, N797del). The remaining cells are plated in the same manner, in a 384, white-well, clear-bottom, tissue-culture treated plate for expression and relative cell number determination. Plates are placed in the incubator at 37° C. overnight.\nCompounds were brought to 10 mM in DMSO. DMSO concentration was kept constant throughout the dilution of any compound. DMSO negative control and concentration-response curves were nanoliter-spotted via PICO8 automated dispenser at 5× test concentration into a 384w clear polypropylene plate containing 1×HBSS+20 mM HEPES buffer. A predetermined concentration equivalent to the EC80 of TRPV4 agonist on hTRPV4 was prepared at 6× in 1×HBSS+20 mM HEPES and loaded into a separate 384-well v-bottom polypropylene plate.\nApproximately 18 hours post-transfection, the cell plates were removed from the incubator and equal volume (25 uL) Calcium 6 dye was gently added. Calcium 6 dye containing probenecid (final 5 mM) was prepared per manufacturer's instructions. Cell plate was returned to the incubator for 1 hour, at 37° C.\nFLIPR Penta was programmed to add compound using the following settings • Pipettor Head=384 • Read Mode 1 Excitation Wavelength=470_495 • Read Mode 1 Emission Wavelength=515_575 • Read Mode 1 Exposure=0.1000 • Read Mode 1 Gain=6.50 • Read Mode 1 Excitation Intensity=20 • Volume of addition=12.5 μL • Height=40 μL • Speed=15 μL/second\nRaw data was exported and analyzed for maximum signal (RFU) after agonist addition—the average baseline (RFU) in the first 15 seconds per well. Data was plotted in GraphPad Prism to determine EC50 or IC50 of the molecules.",
  "data": [
    {"compound": "CC(C)(O)c1cnc(N2C[C@@]3(CC[C@@H](F)[C@](C)(Cn4cnc5ccc(C#N)cc54)C3)OC2=O)cn1", "note": "(single isomer, unassigned) [Example 5]", "values": [
      {"measurement": "IC50", "result": 13, "unit": "nM"}
    ]}
  ]
}
